Data: ChEMBL document CHEMBL3352227, “Synthesis, antimycobacterial and antibacterial evaluation of l-[(1R, 2S)-2-fluorocyclopropyl]fluoroquinolone derivatives containing an oxime functional moiety” (Eur J Med Chem, 2014)
≈ marks a conversion by molar mass, not a printed value.

Columns and labels:
Type in all cases: functional
[1] = system: Staphylococcus epidermidis; test: Antibacterial activity against methicillin-sensitive Staphylococcus epidermidis 12-6 after 18 to 24 hrs by standard twofold serial dilution method
[2] = system: Streptococcus pneumoniae; test: Antibacterial activity against Streptococcus pneumoniae 12-18 after 18 to 24 hrs by standard twofold serial dilution method
[3] = system: Staphylococcus epidermidis; test: Antibacterial activity against methicillin-sensitive Staphylococcus epidermidis 12-3 after 18 to 24 hrs by standard twofold serial dilution method
[4] = system: Pseudomonas aeruginosa; test: Antibacterial activity against Pseudomonas aeruginosa 12-14 after 18 to 24 hrs by standard twofold serial dilution method
[5] = system: Staphylococcus epidermidis; test: Antibacterial activity against methicillin-sensitive Staphylococcus epidermidis 12-1 after 18 to 24 hrs by standard twofold serial dilution method
[6] = system: Escherichia coli; test: Antibacterial activity against extended-spectrum beta-lactamase producing Escherichia coli 12-2 after 18 to 24 hrs by standard twofold serial dilution method
[7] = system: Klebsiella pneumoniae; test: Antibacterial activity against extended-spectrum beta-lactamase producin Klebsiella pneumoniae 12-14 after 18 to 24 hrs by standard twofold serial dilution method
[8] = system: Klebsiella pneumoniae; test: Antibacterial activity against Klebsiella pneumoniae 12-4 after 18 to 24 hrs by standard twofold serial dilution method
[9] = system: Escherichia coli; test: Antibacterial activity against Escherichia coli 12-1 after 18 to 24 hrs by standard twofold serial dilution method
[10] = system: Staphylococcus aureus; test: Antibacterial activity against methicillin-sensitive Staphylococcus aureus 12-2 after 18 to 24 hrs by standard twofold serial dilution method
[11] = system: Staphylococcus aureus; test: Antibacterial activity against methicillin-resistant Staphylococcus aureus 12-5 after 18 to 24 hrs by standard twofold serial dilution method
[12] = system: Staphylococcus epidermidis; test: Antibacterial activity against methicillin-resistant Staphylococcus epidermidis 12-1 after 18 to 24 hrs by standard twofold serial dilution method
[13] = system: Pseudomonas aeruginosa; test: Antibacterial activity against Pseudomonas aeruginosa 12-12 after 18 to 24 hrs by standard twofold serial dilution method
[14] = system: Klebsiella pneumoniae; test: Antibacterial activity against Klebsiella pneumoniae 12-1 after 18 to 24 hrs by standard twofold serial dilution method
[15] = system: Klebsiella pneumoniae; test: Antibacterial activity against Klebsiella pneumoniae 12-2 after 18 to 24 hrs by standard twofold serial dilution method
[16] = system: Staphylococcus epidermidis; test: Antibacterial activity against methicillin-sensitive Staphylococcus epidermidis 12-8 after 18 to 24 hrs by standard twofold serial dilution method
[17] = system: Staphylococcus aureus; test: Antibacterial activity against methicillin-sensitive Staphylococcus aureus 12-4 after 18 to 24 hrs by standard twofold serial dilution method
[18] = system: Staphylococcus aureus; test: Antibacterial activity against methicillin-sensitive Staphylococcus aureus 12-5 after 18 to 24 hrs by standard twofold serial dilution method
[19] = system: Staphylococcus aureus; test: Antibacterial activity against methicillin-resistant Staphylococcus aureus 12-4 after 18 to 24 hrs by standard twofold serial dilution method
[20] = system: Streptococcus pneumoniae; test: Antibacterial activity against Streptococcus pneumoniae ATCC 49619 after 18 to 24 hrs by standard twofold serial dilution method
[21] = system: Staphylococcus aureus; test: Antibacterial activity against Staphylococcus aureus ATCC 25923 after 18 to 24 hrs by standard twofold serial dilution method
[22] = system: Escherichia coli; test: Antibacterial activity against Escherichia coli ATCC 25922 after 18 to 24 hrs by standard twofold serial dilution method
[23] = system: Escherichia coli; test: Antibacterial activity against extended-spectrum beta-lactamase producing Escherichia coli 12-14 after 18 to 24 hrs by standard twofold serial dilution method
[24] = system: Klebsiella pneumoniae; test: Antibacterial activity against extended-spectrum beta-lactamase producin Klebsiella pneumoniae 12-4 after 18 to 24 hrs by standard twofold serial dilution method
[25] = system: Staphylococcus epidermidis; test: Antibacterial activity against methicillin-resistant Staphylococcus epidermidis 12-6 after 18 to 24 hrs by standard twofold serial dilution method
[26] = system: Klebsiella pneumoniae; test: Antibacterial activity against extended-spectrum beta-lactamase producin Klebsiella pneumoniae 12-7 after 18 to 24 hrs by standard twofold serial dilution method
[27] = system: Escherichia coli; test: Antibacterial activity against extended-spectrum beta-lactamase producing Escherichia coli 12-15 after 18 to 24 hrs by standard twofold serial dilution method
[28] = system: Klebsiella pneumoniae; test: Antibacterial activity against extended-spectrum beta-lactamase producin Klebsiella pneumoniae 12-3 after 18 to 24 hrs by standard twofold serial dilution method
[29] = system: Staphylococcus aureus; test: Antibacterial activity against methicillin-resistant Staphylococcus aureus 12-2 after 18 to 24 hrs by standard twofold serial dilution method
[30] = system: Escherichia coli; test: Antibacterial activity against extended-spectrum beta-lactamase producing Escherichia coli 12-3 after 18 to 24 hrs by standard twofold serial dilution method
[31] = system: Mycobacterium tuberculosis; test: Antimycobacterial activity against Mycobacterium tuberculosis H37Rv ATCC 27294 by MABA method
[32] = system: Staphylococcus aureus; test: Antibacterial activity against methicillin-sensitive Staphylococcus aureus 12-1 after 18 to 24 hrs by standard twofold serial dilution method

## NC[C@@H]1/C(=N\OCc2ccccc2)CN1c1nc2c(cc1F)c(=O)c(C(=O)O)cn2[C@@H]1C[C@@H]1F
[1]
  MIC: 0.5 µg/mL (≈ 1.07 µM)
[2]
  MIC: 4 µg/mL (≈ 8.52 µM)
[3]
  MIC: 1 µg/mL (≈ 2.13 µM)
[4]
  MIC: 128 µg/mL (≈ 273 µM)
[5]
  MIC: 0.5 µg/mL (≈ 1.07 µM)
[6]
  MIC: > 128 µg/mL
[7]
  MIC: 128 µg/mL (≈ 273 µM)
[8]
  MIC: 1 µg/mL (≈ 2.13 µM)
[9]
  MIC: 4 µg/mL (≈ 8.52 µM)
[10]
  MIC: 0.25 µg/mL (≈ 0.533 µM)
[11]
  MIC: 128 µg/mL (≈ 273 µM)
[12]
  MIC: 32 µg/mL (≈ 68.2 µM)
[13]
  MIC: 8 µg/mL (≈ 17 µM)
[14]
  MIC: 1 µg/mL (≈ 2.13 µM)
[15]
  MIC: 1 µg/mL (≈ 2.13 µM)
[16]
  MIC: 32 µg/mL (≈ 68.2 µM)
[17]
  MIC: 0.25 µg/mL (≈ 0.533 µM)
[18]
  MIC: 0.25 µg/mL (≈ 0.533 µM)
[19]
  MIC: 128 µg/mL (≈ 273 µM)
[20]
  MIC: 1 µg/mL (≈ 2.13 µM)
[21]
  MIC: 0.5 µg/mL (≈ 1.07 µM)
[22]
  MIC: 0.5 µg/mL (≈ 1.07 µM)
[23]
  MIC: > 128 µg/mL
[24]
  MIC: 32 µg/mL (≈ 68.2 µM)
[25]
  MIC: 32 µg/mL (≈ 68.2 µM)
[26]
  MIC: 8 µg/mL (≈ 17 µM)
[27]
  MIC: > 128 µg/mL
[28]
  MIC: > 128 µg/mL
[29]
  MIC: 128 µg/mL (≈ 273 µM)
[30]
  MIC: 16 µg/mL (≈ 34.1 µM)
[31]
  MIC: 2 µg/mL (≈ 4.26 µM)
[32]
  MIC: 0.5 µg/mL (≈ 1.07 µM)

## CO/N=C1/CN(c2nc3c(cc2F)c(=O)c(C(=O)O)cn3[C@@H]2C[C@@H]2F)[C@@H]1CN
[1]
  MIC: 0.5 µg/mL (≈ 1.27 µM)
[2]
  MIC: 4 µg/mL (≈ 10.2 µM)
[3]
  MIC: 0.5 µg/mL (≈ 1.27 µM)
[4]
  MIC: 128 µg/mL (≈ 325 µM)
[5]
  MIC: 0.5 µg/mL (≈ 1.27 µM)
[6]
  MIC: > 128 µg/mL
[7]
  MIC: 128 µg/mL (≈ 325 µM)
[8]
  MIC: 0.5 µg/mL (≈ 1.27 µM)
[9]
  MIC: 2 µg/mL (≈ 5.08 µM)
[10]
  MIC: 0.5 µg/mL (≈ 1.27 µM)
[11]
  MIC: > 128 µg/mL
[12]
  MIC: 64 µg/mL (≈ 163 µM)
[13]
  MIC: 2 µg/mL (≈ 5.08 µM)
[14]
  MIC: 1 µg/mL (≈ 2.54 µM)
[15]
  MIC: 0.5 µg/mL (≈ 1.27 µM)
[16]
  MIC: 32 µg/mL (≈ 81.4 µM)
[17]
  MIC: 0.5 µg/mL (≈ 1.27 µM)
[18]
  MIC: 0.5 µg/mL (≈ 1.27 µM)
[19]
  MIC: > 128 µg/mL
[20]
  MIC: 1 µg/mL (≈ 2.54 µM)
[21]
  MIC: 0.25 µg/mL (≈ 0.636 µM)
[22]
  MIC: 0.25 µg/mL (≈ 0.636 µM)
[23]
  MIC: > 128 µg/mL
[24]
  MIC: 16 µg/mL (≈ 40.7 µM)
[25]
  MIC: 64 µg/mL (≈ 163 µM)
[26]
  MIC: 4 µg/mL (≈ 10.2 µM)
[27]
  MIC: > 128 µg/mL
[28]
  MIC: > 128 µg/mL
[29]
  MIC: > 128 µg/mL
[30]
  MIC: 16 µg/mL (≈ 40.7 µM)
[31]
  MIC: 4 µg/mL (≈ 10.2 µM)
[32]
  MIC: 1 µg/mL (≈ 2.54 µM)

## CO/N=C1/CN(c2c(F)cc3c(=O)c(C(=O)O)cn([C@@H]4C[C@@H]4F)c3c2Cl)CC1CN (stereo partly specified)
[1]
  MIC: 0.125 µg/mL (≈ 0.284 µM)
[2]
  MIC: 1 µg/mL (≈ 2.27 µM)
[3]
  MIC: 0.5 µg/mL (≈ 1.13 µM)
[4]
  MIC: 16 µg/mL (≈ 36.3 µM)
[5]
  MIC: 0.125 µg/mL (≈ 0.284 µM)
[6]
  MIC: 64 µg/mL (≈ 145 µM)
[7]
  MIC: 32 µg/mL (≈ 72.6 µM)
[8]
  MIC: 0.25 µg/mL (≈ 0.567 µM)
[9]
  MIC: 1 µg/mL (≈ 2.27 µM)
[10]
  MIC: 0.125 µg/mL (≈ 0.284 µM)
[11]
  MIC: 16 µg/mL (≈ 36.3 µM)
[12]
  MIC: 4 µg/mL (≈ 9.07 µM)
[13]
  MIC: 1 µg/mL (≈ 2.27 µM)
[14]
  MIC: 0.25 µg/mL (≈ 0.567 µM)
[15]
  MIC: 0.25 µg/mL (≈ 0.567 µM)
[16]
  MIC: 2 µg/mL (≈ 4.54 µM)
[17]
  MIC: 0.06 µg/mL (≈ 0.136 µM)
[18]
  MIC: 0.125 µg/mL (≈ 0.284 µM)
[19]
  MIC: 16 µg/mL (≈ 36.3 µM)
[20]
  MIC: 0.25 µg/mL (≈ 0.567 µM)
[21]
  MIC: < 0.008 µg/mL
[22]
  MIC: 0.125 µg/mL (≈ 0.284 µM)
[23]
  MIC: 64 µg/mL (≈ 145 µM)
[24]
  MIC: 16 µg/mL (≈ 36.3 µM)
[25]
  MIC: 4 µg/mL (≈ 9.07 µM)
[26]
  MIC: 4 µg/mL (≈ 9.07 µM)
[27]
  MIC: 128 µg/mL (≈ 290 µM)
[28]
  MIC: 32 µg/mL (≈ 72.6 µM)
[29]
  MIC: 16 µg/mL (≈ 36.3 µM)
[30]
  MIC: 32 µg/mL (≈ 72.6 µM)
[31]
  MIC: 4 µg/mL (≈ 9.07 µM)
[32]
  MIC: 0.125 µg/mL (≈ 0.284 µM)
